# According to PMC11855827, “High-Throughput Screening of Five Compound Libraries for Anthelmintic Activity and Toxicity Leads to the Discovery of Two Flavonoid Compounds” (International Journal of Molecular Sciences, 2025):
# Read-outs that look alike come from different tables or passages of the source.
# System: C. elegans
# Experiment: microbe, parasite or virus in culture
# Settings: Caenorhabditis elegans
# [1] = 0 h, read-out: Percentage of motility inhibition 0 h, Table S2, C. elegans SS assay, 110 μM, 0 h, averages of 4 data points
# [2] = 24 h, read-out: Percentage of motility inhibition 24 h, Table S2, C. elegans SS assay, 110 μM, 24 h, averages of 4 data points
# [3] = 0 h, read-out: Percentage of motility inhibition 0 h
# [4] = 24 h, read-out: Percentage of motility inhibition 24 h
SMILES,inhibition at 110 µM [1],inhibition at 110 µM [2],inhibition at 110 µM [3],inhibition at 110 µM [4]
CC(C)(C)NC(=O)N[C@H](C(=O)N1C[C@H]2[C@@H]([C@H]1C(=O)NC(CC1CCC1)C(=O)C(N)=O)C2(C)C)C(C)(C)C (some centres unmarked) [Boceprevir],28%,39%,–,–
COc1cc(O)c(C(=O)/C=C/c2ccc(O)cc2)c(OC)c1 [Flavokawain C],18%,20%,–,–
CC(=O)O[C@H]1CC(=O)OC(C)(C)[C@@H]2CC(=O)[C@]3(C)[C@H](CC[C@@]4(C)[C@H](c5ccoc5)OC(=O)[C@H]5O[C@]543)[C@@]12C [Nomilin],0%,22%,–,–
N[C@H]1C(O)O[C@H](CO)[C@@H](O)[C@@H]1O (some centres unmarked) [Glucosamine],8%,4%,–,–
CN(C/C=C/C#CC(C)(C)C)Cc1cccc2ccccc12 [Terbinafine],31%,0%,–,–
O=C1N[C@@H]2[C@@H](O)[C@@H](O)[C@H](O)[C@@H](CO)N2C1=O [Kifunensine],30%,5%,–,–
CC(C)/N=c1\cc2n(-c3ccc(Cl)cc3)c3ccccc3nc-2cc1Nc1ccc(Cl)cc1 [Clofazimine],6%,7%,–,–
O=c1c(O)c(-c2ccc(O)c(O)c2)oc2cc(O)ccc12 [Fisetin],0%,2%,–,–
C[C@@]1(CO)C[C@@H](O)C[C@@]2(C)[C@@H]3CC[C@](C)([C@@H](O)CO)C=C3CC[C@H]12 [Kirenol],0%,15%,–,–
CC(C)=CCc1cc2c(cc1O)O[C@H](c1ccc(O)cc1)CC2=O [Bavachin],27%,24%,–,–
C[C@@H]1O[C@@H](Oc2c(-c3ccc(O)c(O)c3)oc3cc(O)cc(O)c3c2=O)[C@H](O)[C@H](O)[C@H]1O [Quercitrin],4%,0%,–,–
O=c1cccc2n1C[C@H]1C[C@@H]2CN2CCCC[C@H]12 [Anagyrine],14%,6%,–,–
C[C@@]12C[C@@]3(O)O[C@@H](O1)[C@]1(COC(=O)c4ccc(O)cc4)[C@@H]3C[C@]12O[C@@H]1O[C@H](COC(=O)c2ccccc2)[C@@H](O)[C@H](O)[C@H]1O [Mudanpioside C],23%,41%,–,–
C=C1CCC[C@]2(C)CC[C@@H](C(C)(C)O)C[C@@H]12 [Beta-Eudesmol],0%,6%,–,–
Cc1cc(C2CCCCC2)n(O)c(=O)c1 [Ciclopirox],42%,41%,–,–
CC1(C)CC[C@]2(C(=O)O)CC[C@]3(C)C(=CC[C@@H]4[C@@]5(C)CC[C@H](O)[C@@](C)(C=O)[C@@H]5CC[C@]43C)[C@@H]2C1 [Gypsogenin],10%,10%,–,–
O=C(C1CCCCC1)N1CC(=O)N2CCc3ccccc3C2C1 (centres unmarked) [Praziquantel],27%,0%,–,–
CC(=O)N[C@H]1[C@H]([C@H](O)[C@H](O)CO)OC(C(=O)O)=C[C@@H]1N=C(N)N [Zanamivir],22%,6%,–,–
CC1(C)CCC[C@](C)([C@H]2CC[C@]3(C)[C@@H]2[C@H](O)C[C@@H]2[C@@]4(C)CC[C@H](O)C(C)(C)[C@@H]4CC[C@]23C)O1 [Panaxadiol],39%,36%,–,–
C[C@H]1[C@H](C)CC[C@]2(C(=O)O)CC[C@]3(C)C(=CC[C@@H]4[C@@]5(C)CC[C@H](O)C(C)(C)[C@@H]5CC[C@]43C)[C@H]12 [Ursolic acid],0%,0%,–,–
C=C[C@H]1CN2CC[C@H]1C[C@H]2[C@H](O)c1ccnc2ccccc12 [Cinchonidine],0%,0%,–,–
O=C(O)CCCC[C@@H]1SC[C@@H]2NC(=O)N[C@@H]21 [Biotin],–,–,14%,12%
O=c1[nH]c(=O)n([C@H]2C[C@H](O)[C@@H](CO)O2)cc1I [Idoxuridine],38%,11%,–,–
O=C(N/N=C/c1ccc([N+](=O)[O-])o1)c1cc([N+](=O)[O-])cc([N+](=O)[O-])c1O [Nifursol],8%,6%,–,–
CCCCC(CC)CN1CN(CC(CC)CCCC)CC(C)(N)C1 (centres unmarked) [Hexetidine],46%,39%,–,–
COc1ccc(C[C@@H]2c3cc(Oc4cc(C[C@@H]5c6cc(O)c(OC)cc6CCN5C)ccc4O)c(OC)cc3CCN2C)cc1 [Isoliensinine],–,–,3%,17%

SMILES,inhibition at 110 µM [1],inhibition at 110 µM [2],inhibition at 110 µM [3],inhibition at 110 µM [4]
CC1=CCC(C(C)C)=CC1 [γ-Terpinene],6%,31%,–,–
C=C1C(=O)[C@]23C[C@H]1C[C@@H](O)[C@H]2[C@@]12CO[C@@H](O)[C@@H]1C(C)(C)CC[C@@H]2OC3=O [Nodosin],0%,14%,–,–
OC[C@H]1O[C@@H](O[C@H]2[C@H](O)[C@@H](O)C(O)O[C@@H]2CO)[C@H](O)[C@@H](O)[C@H]1O (mixture of isomers) [Lactose],–,–,54%,10%
C[C@H]1O[C@@H](O[C@H]2CC[C@@]3(C)[C@H](CC[C@@H]4[C@@H]3C[C@@H](O)[C@]3(C)[C@@H](C5=CC(=O)OC5)CC[C@]43O)C2)C[C@H](O)[C@@H]1O[C@H]1C[C@H](O)[C@H](O[C@H]2C[C@H](O)[C@H](O[C@@H]3O[C@H](CO)[C@@H](O)[C@H](O)[C@H]3O)[C@@H](C)O2)[C@@H](C)O1 [Deslanoside],5%,5%,–,–
C[C@]1(OC(=O)/C=C/c2ccccc2)C[C@@H](O)[C@]2(O)C=CO[C@@H](O[C@@H]3O[C@H](CO)[C@@H](O)[C@H](O)[C@H]3O)[C@@H]21 [Harpagoside],9%,30%,–,–
CC1=C2C(=O)O[C@@H](c3ccoc3)[C@]2(C)CCC1 [Fraxinellone],0%,6%,–,–
C=C1C(=O)[C@@]23[C@@H]4OC5O[C@@]2(O)[C@@H](O)[C@@H]2C(C)(C)CC[C@@H](O)[C@]52[C@@H]3CC[C@@H]14 [Ponicidin],4%,0%,–,–
CC[C@H]1CN2CC[C@@]3(C(=O)Nc4ccccc43)[C@@H]2C[C@@H]1/C(=C\OC)C(=O)OC [Isorhynchophylline],0%,0%,–,–
CC[C@H]1OC(=O)[C@H](C)[C@@H](O[C@H]2C[C@@](C)(OC)[C@@H](O)[C@H](C)O2)[C@H](C)[C@@H](O[C@@H]2O[C@H](C)C[C@H](N(C)C)[C@H]2O)[C@](C)(O)C[C@@H](C)[C@@H]2N[C@@H](COCCOC)O[C@H]([C@H]2C)[C@]1(C)O [Dirithromycin],3%,0%,–,–
Nc1nc(O)c2ncn(COC(CO)CO)c2n1 [Ganciclovir],22%,5%,–,–
C=C(C)[C@H](CC=C(C)C)Cc1c(O)cc(O)c2c1O[C@H](c1ccccc1O)CC2=O [Kushenol A],14%,10%,–,–
Cc1cc2c(C(C)C)c(O)c(O)c(C=O)c2c(O)c1-c1c(C)cc2c(C(C)C)c(O)c(O)c(C=O)c2c1O [Gossypol],0%,26%,–,–
CC1=C(C(=O)O)N2C(=O)[C@@H](NC(=O)[C@H](N)c3ccccc3)[C@H]2SC1 [Cephalexin],21%,13%,–,–
C[C@H]1O[C@@H](O[C@H]2CC[C@@]3(C)[C@@H](CC[C@]4(C)[C@@H]3C=C[C@]35OC[C@@]6(CCC(C)(C)C[C@H]63)[C@@H](O)C[C@]54C)[C@]2(C)CO)[C@H](O)[C@@H](O[C@@H]2O[C@H](CO)[C@@H](O)[C@H](O)[C@H]2O)[C@H]1O [Saikosaponin A],2%,4%,–,–
C=C1C(=O)[C@@]23[C@H](O)C[C@@H]4C(C)(C)CC[C@H](O)[C@@]4(CO)[C@@H]2CC[C@@H]1[C@H]3O [Kamebakaurin],0%,11%,–,–
C[C@H](CC(=O)C[C@@H](C)[C@H]1C[C@H](O)[C@@]2(C)C3=C(C(=O)C[C@]12C)[C@@]1(C)CCC(=O)C(C)(C)[C@@H]1C[C@@H]3O)C(=O)O [Ganoderic acid A],15%,6%,–,–
C/C(=C\C(=O)OCCCCCCCCC(=O)O)C[C@@H]1OC[C@H](C[C@@H]2O[C@H]2[C@@H](C)[C@H](C)O)[C@@H](O)[C@H]1O [Mupirocin],10%,11%,–,–
COc1ccc(-c2oc3cc(OC)c(OC)c(O)c3c(=O)c2OC)cc1O [Casticin],–,–,9%,0%
C/C1=C\CC[C@]23O[C@H]2[C@@H](OC3=O)c2c(C)coc2C1 [Linderane],5%,16%,–,–
C=C1CC[C@@H]2[C@](C)(CO[C@@H]3O[C@H](CO)[C@@H](O)[C@H](O)[C@H]3O)CCC[C@@]2(C)[C@@H]1CCC1=CCOC1=O [Neoandrographolide],15%,40%,–,–
C=C1C(=O)[C@]23[C@H](O)[C@H]1CC[C@H]2[C@@]12CO[C@]3(O)[C@@H](O)[C@@H]1C(C)(C)CC[C@@H]2O [Oridonin],0%,3%,–,–
NC(=O)N/N=C/c1ccc([N+](=O)[O-])o1 [Nitrofurazone],25%,22%,–,–
COc1cc2c(cc1O)-c1cc3ccc(OC)c(OC)c3c[n+]1CC2 [Columbamine],1%,0%,–,–
C=CCc1ccc(O)c(-c2cc(CC=C)ccc2O)c1 [Magnolol],0%,14%,–,–
Cc1oc(=O)oc1COC(=O)C1=C([C@H]2CCCO2)S[C@@H]2[C@@H]([C@@H](C)O)C(=O)N12 [Faropenem daloxate],5%,17%,–,–
CCCOc1ccc2nc(NC(=O)OC)[nH]c2c1 [Oxibendazole],17%,28%,–,–
